Values after ≈ are worked out from the molar mass of the structure shown.
Legend:
DEFB4B (hBD2) = test: NHEK antimicrobial peptide gene expression, hBD2; format: cell-based, human; settings: 10 μM, 24 hours, qPCR, normalized to GAPDH
Procedure: (§1) Normal human epidermal keratinocytes (NHEKs) from neonatal donors were obtained from Thermo-Fisher (Cat No. C-001-5C). Cells were cultured in 6-well plates for 24 hours before treatments with EpiLife media (Cat No. MEPI500CA) supplemented with keratinocytes growth supplement (Cat No. 50015). On Day 2, media was removed and incubated with test materials (10 μM) for 24 hours at 37° C. and 5% CO2. On Day 3, total RNA was extracted from cells using the RNAqueous® kit (Ambion®; Cat No. 1912) and cDNA was obtained using the High Capacity RNA-to-cDNA kit (Applied Biosystems®; Cat No. 4387406). Quantitative PCR (qPCR) was performed using the TaqMan® Fast Advanced Master Mix (Applied Biosystems®; Cat No. 4444556) and specific TaqMan®-probes human gene primers DEFB4B (hBD2), DEFB103 (hBD3), HCAP18 and GAPDH to calculate the relative gene fold expression change per treatment. Gene expression analysis was performed using the comparative Ct method (also known as the 2-[delta][delta]Ct) approach by comparing the Ct values of the treated samples with the untreated samples and normalized to GAPDH gene expression as endogenous housekeeping gene. Results were represented as fold-expression/untreated cells.

HCAP18 = test: NHEK antimicrobial peptide gene expression, hCAP18; format: cell-based, human; settings: 10 μM, 24 hours, qPCR, normalized to GAPDH
Procedure: as §1

DEFB103 (hBD3) = test: NHEK antimicrobial peptide gene expression, hBD3; format: cell-based, human; settings: 10 μM, 24 hours, qPCR, normalized to GAPDH
Procedure: as §1

IL-8 [1] = test: Peptidoglycan (PGN)-induced IL-8 on NHEKs; format: cell-based, human; settings: Homo sapiens; NHEK, PGN 10 μg/mL, 24 hours, ELISA; read-out: PGN-NHEK 1L-8 Protein IC50
Procedure: (§2) Normal human epidermal keratinocytes (NHEKs) from neonatal donors were obtained from Thermo-Fisher (Cat No. C-001-5C). Cells were cultured in 96-well plates for 24 hours with EpiLife media (Cat No. MEPI500CA) supplemented with keratinocytes growth supplement (Cat No. S0015). On Day 2, media was removed and replaced with supplement-depleted medium for 24 hours. On Day 3, media was removed and cells were pre-treated with test materials (≤1 μM) for 2 hours and later co-treated with test materials and PGN (Sigma Aldrich, Cat No. 77140) at 10 μg/mL and incubated for 24 hours at 37° C. and 5% CO2. PGN is a TLR-2 agonist. After incubation, cell media supernatants were harvested and used to measure pro-inflammatory cytokine levels (IL-8) using ELISA kit (BD Biosciences® #555244). Results were represented as percent of inhibition relative to untreated and PGN-only treated cells. IC50 values were determined by non-linear regression analysis using the four-parameter logistic equation.

IL-17 = test: P. acnes-induced IL-17 protein on human PBMCs (ELISA); format: cell-based; settings: PBMC, PBMCs + live P. acnes 1:1, test material 30 PM, 24 hours
Procedure: (§3) Cryopreserved human Peripheral Blood Mononuclear cells (PBMCs) from healthy adult donors were obtained from Zen Bio, Inc (Cat No. SER-PBMC-F). Cells were cultured in 12-well plates with lymphocyte media (Cat No. LYMPH-1) and incubated with test materials ([…]) and live P. acnes (ATCC® 6919TM) at 1:1 PBMC: P. acnes bacteria ratio for 24 hours at 37° C. and 5% CO2. After incubation, cell media supernatants were harvested and used to measure pro-inflammatory cytokine levels (IL-8, TNF-α, IL-1b, IL-17) using ELISA kits (BD Biosciences® #557966, #555212, #555244; R&D Systems® #DY317). Total RNA was extracted from cells using the RNAqueous® kit (Ambion®; Cat No. 1912) and cDNA was obtained using the High Capacity RNA-to-cDNA kit (Applied Biosystems®; Cat No. 4387406). Quantitative PCR (qPCR) was performed using the TaqMan® Fast Advanced Master Mix (Applied Biosystems®; Cat No. 4444556) and specific TaqMan®-probes human gene primers CXCL8 (IL-8), IL1B (IL-1b), TNF (TNF-α), IL17A (IL-17A) and GAPDH to calculate the relative gene fold expression change per treatment. Gene expression analysis was performed using the comparative Ct method (also known as the 2-[delta][delta]Ct) approach by comparing the Ct values of P. acnes-only treated cells with the untreated samples and normalized to GAPDH gene expression as endogenous housekeeping gene.

[2] = test system: subjects with mild to moderate acne; test: 8-week clinical study in subjects with mild to moderate acne; format: in vivo; parameters: scale not given here; settings: E 1% w/w, BPO 3% w/w, human
Text: Subjects used the assigned product at home for 8 weeks. Subjects returned post baseline at week 2, 4 and 8. At each visit subjects underwent expert clinical grading and test site photography. […] The severity of acne signs and symptoms on the faces of >18 yo subjects were clinically assessed by IGA scale during an 8-week Study period. In addition, UV light mode was utilized to observe porphyrins fluorescence (orange-red dots).

P. acnes (ATCC 6919) [3] = test: Minimal inhibitory concentration (MIC) against P. acnes; format: cell-based, Propionibacterium acnes; settings: Cutibacterium acnes, ATCC6919, 72 h, P. acnes ATCC 6919, 10^6 CFU/mL, read-out: MIC
Procedure: To determine minimal inhibitory concentration (MIC), reagents were dissolved in vehicle (5% v/v) and then added to bacteria suspension. P. acnes (ATCC® 6919TM) at 10^6 CFU/mL was incubated with test materials at the concentrations of two-fold serial dilution (0.25-500 μg/mL) and incubated for 72 hours (P. acnes).

P. acnes (ATCC 6919) [4] = test: Minimal bactericidal concentration (MBC) against P. acnes; format: cell-based, Propionibacterium acnes; settings: Cutibacterium acnes, ATCC6919; P. acnes 10^7 CFU/mL, in PBS, anaerobic conditions
IL-8 [5] = test: P. acnes-induced IL-8 protein on human PBMCs (ELISA); format: cell-based; settings: PBMCs + live P. acnes 1:1, test material 30 PM, 24 hours
Procedure: as §3

[6] = test system: P. acnes (ATCC 6919) biofilms; test: P. acnes biofilm eradication (MBEC), crystal violet; format: cell-based, Propionibacterium acnes; settings: 24 hours, ≥80% eradication vs vehicle
Procedure: P. acnes (ATCC® 6919™) was cultured as described above. Bacteria biofilms were established by seeding P. acnes cultures in 96-well plates and incubating for 24 hours without agitation. Later, biofilms were incubated with test materials for 24 hours. Remaining biofilms were washed and stained with crystal violet. […] The absorbance was measured at 595 nm in a microplate reader. […] Results from disk diffusion susceptibility testing (Kirby-Bauer Method) after 72 hours incubation were also obtained.

TNF-α = test: P. acnes-induced TNF-α protein on human PBMCs (ELISA); format: cell-based; settings: PBMCs + live P. acnes 1:1, test material 30 PM, 24 hours
Procedure: as §3

IL-1b = test: P. acnes-induced IL-1b protein on human PBMCs (ELISA); format: cell-based; settings: PBMC, PBMCs + live P. acnes 1:1, test material 30 PM, 24 hours
Procedure: as §3

IL-13 = test: Concanavalin-A-induced IL-13 on PBMCs; format: cell-based; settings: Homo sapiens, PBMC, ConA, 24 hours, ELISA
IL-31 = test: Anti-CD3/CD28+IL-4-induced IL-31 on PBMCs; format: cell-based; settings: Homo sapiens, PBMC, anti-CD3/CD28 beads + 50 ng/mL IL-4, 48 hours, ELISA, read-out: TCR/IL-4-PBMCs IL-31 IC50
Procedure: Cryopreserved human Peripheral Blood Mononuclear cells (PBMCs) from healthy adult donors were obtained from Zen Bio, Inc (Cat No. SER-PBMC-F). Cells were cultured in 96-well plates with lymphocyte media (Cat No. LYMPH-1) and were pre-treated with test materials (≤100 μM) for 2 hours and later co-treated with test materials and anti-CD3/CD28 beads (Thermo-Fisher; Cat No. 11131D) and 50 ng/mL recombinant human IL-4 (R&D Systems® #204-IL) for 48 hours at 37° C. and 5% CO2. After incubation, cell media supernatants were harvested and used to measure cytokine levels (IL-22, IL-31) using ELISA kits (R&D Systems® #DY782, #DY2824). Results were represented as percent of inhibition relative to untreated and anti-CD3/CD28+IL-4 only treated cells. IC50 values were determined by non-linear regression analysis using the four-parameter logistic equation.

IL-8 [7] = test: TPA-induced IL-8 on NHEKs; format: cell-based; settings: Homo sapiens; NHEK, TPA 5 ng/mL, 24 hours, ELISA
Procedure: as §2, with “TPA” for “PGN”, “P8139)” for “77140)”, “5 ng/mL” for “10 μg/mL”, “CO2.” for “CO2. PGN is a TLR-2 agonist.”, “TPA-only” for “PGN-only”

Balb/C mice = test: Oxazolone-induced delayed-type hypersensitivity (DTH) in vivo model; settings: Mus musculus, topical @1%, 24 hours, read-out: Edema % inhibition
Procedure: Inbred male Balb/C mice were purchased from Hilltop Lab Animals (Scottdale, PA) and were used between 8 and 10 weeks of age. Mice backs were shaved and 100 μl of 3% v/v Oxazolone (Sigma Aldrich, Cat No. E0753) in acetone/olive oil (4:1) was applied to dorsal skin for sensitization. On Day 7, ears were challenged with 0.5% v/v Oxazolone and 30 minutes after challenge, test materials at 3% w/v were applied to ears (10 μl applied both to the dorsal and ventral surfaces of the mouse ear using a solvent pipette) and 24 hours later, skin thickness (edema) was measured. A 6-mm punch biopsy was obtained from each ear, snap frozen in liquid nitrogen. Ear skin biopsy punches were pulverized using FastPrep®-24 Biopulverizer (MP Biomedical, CatNo. 116004500) and Lysing Matrix A tubes (CatNo. 16910050). Protein extracts were obtained using 500 μL/tissue of cold T-PER buffer (ThermoFisher, CatNo. 78510) with Protease inhibitors (Sigma-Aldich, CatNo. 58820-20TAB). Soluble protein fractions were used to measure cytokine levels (IL-4) using ELISA kit (BD Biosciences® #555232). Results were represented as percent of inhibition relative to unsensitized and sensitized-only treated animals. Vehicle for presently disclosed compounds was 60:40 H2O:EtOH and 1:1 Acetone:EtOH for AN2718. (n=5-15 animals per treatment group).
Compound C was further analyzed at various dosages against 0.4 mg/ear of […] by the above protocol, data representing the average±S.E. of cumulative data from three independent experiments (n=12-15 mice per group) is shown below: […]

Swiss Webster (ICR) mice = test: TPA-induced skin irritation in vivo model (mouse ear); settings: topical @ 1% w/v, 24 hour
Procedure: Outbred male Swiss Webster (ICR) mice were purchased from Hilltop Lab Animals (Scottdale, PA) and were used between 10 and 12 weeks of age and we followed a similar protocol previously described (Gordon et al., 2008). Mice received 1.2 μg/20 μl TPA dissolved in acetone (10 μl applied both to the dorsal and ventral surfaces of the mouse ear using a solvent pipette) to each ear to induce acute irritation (6 per group). Test Materials were co-treated with TPA or applied 5 minutes after TPA dose, at various concentrations (0.6 to 800 μg/20 μl) in ethanol. After 24 hour treatment, edema was measured by ear thickness.

SMILES	hBD2 gene expression (DEFB4B (hBD2))	hCAP18 gene expression (HCAP18)	hBD3 gene expression (DEFB103 (hBD3))	IC50 (IL-8 [1])	inhibition at 30 pM (IL-17)	MIC (P. acnes (ATCC 6919) [3])	MBC (P. acnes (ATCC 6919) [4])	IL-8 Protein % inhibition (IL-8 [5])	MBEC [6]	TNFa-Protein % inhibition (TNF-α)	inhibition at 30 pM (IL-1b)	further results
O=C(OOC(=O)c1ccccc1)c1ccccc1 [Benzoyl Peroxide, reference compound]	1.6 Fold-expression/untreated cells	2.8 Fold-expression/untreated cells	1.2 Fold-expression/untreated cells	> 1000 nM	15%	200 µg/mL (≈ 0.826 mM)	> 200 µg/mL	78%	367 μg/mL and (1515) μM	0%	33%	Investigator Global Assesment (IGA) Scale ([2]; 2 week): 2; Investigator Global Assesment (IGA) Scale ([2]; 4 week): 1; Investigator Global Assesment (IGA) Scale ([2]; 8 week): 1; Investigator Global Assesment (IGA) Scale ([2]; Baseline): 3
C=CC[C@@H]1/C=C(\C)C[C@H](C)C[C@H](OC)[C@H]2O[C@@](O)(C(=O)C(=O)N3CCCC[C@H]3C(=O)O[C@H](/C(C)=C/[C@@H]3CC[C@@H](O)[C@H](OC)C3)[C@H](C)[C@@H](O)CC1=O)[C@H](C)C[C@@H]2OC [FK506, reference compound]												IC50 (IL-13): 600 nM; IC50 (IL-31): 0.4 nM; IC50 (IL-8 [7]): 10 nM; inhibition in vivo at 1 % (Balb/C mice): 32%; MPO (% inhibition) (Swiss Webster (ICR) mice): 81%; Edema (% inhibition) (Swiss Webster (ICR) mice; ear thickness): 0%
O=C(O)c1ccccc1O [Salicylic Acid, reference compound]	1.0 Fold-expression/untreated cells	1.2 Fold-expression/untreated cells	1.2 Fold-expression/untreated cells	> 1000 nM	0%	1000 µg/mL (≈ 7.24 mM)	2000 µg/mL (≈ 14.5 mM)	0%	>8000 μg/mL and (>57920) μM	0%	40%	

Reference: patent US11802107B2, “Compounds and methods of use” (Signum Biosciences, Inc., priority 2017, dated 2023)
